Laboratory results published in ChEMBL document CHEMBL4706545, “Antiproliferative effect of mitochondria-targeting allobetulin 1,2,3-triazolium salt derivatives and their mechanism of inducing apoptosis of cancer cells” (Eur J Med Chem, 2020).
The source made the active and inactive calls. No cut-off for these calls is given here.

Columns and labels:
SGC-7901 [1] = assay: Induction of apoptosis in human SGC-7901 cells assessed as late apoptotic cells incubated for 48 hrs by annexin-V-FITC and PI staining based fluorescence microscopic analysis; assay type: functional, cell-based; details: dose 1-4 µM
SGC-7901 [2] = assay: Induction of ROS-mediated apoptosis in human SGC-7901 cells assessed as early apoptotic cells at 4 uM incubated for 48 hrs in presence of NAC by annexin V-PE and 7-AAD staining based flow cytometry analysis (reference value: 1.15 %); assay type: functional
SGC-7901 [3] = assay: Induction of ROS-mediated apoptosis in human SGC-7901 cells assessed as early apoptotic cells at 4 uM incubated for 48 hrs by annexin V-PE and 7-AAD staining based flow cytometry analysis (reference value: 1.89 %); assay type: functional
SGC-7901 [4] = assay: Induction of apoptosis in human SGC-7901 cells assessed as early apoptotic cells at 1 uM incubated for 48 hrs by annexin-V-FITC and PI staining based fluorescence microscopic analysis (reference value: 1.87 %); assay type: functional
SGC-7901 [5] = assay: Induction of ROS generation in human SGC-7901 cells incubated for 48 hrs by DCFH-DA staining based fluorescence microscopic analysis; assay type: functional, cell-based; details: dose 1-4 µM
SGC-7901 [6] = assay: Induction of ROS-mediated apoptosis in human SGC-7901 cells assessed as viable cells at 4 uM incubated for 48 hrs by annexin V-PE and 7-AAD staining based flow cytometry analysis (reference value: 93.6 %); assay type: functional; details: read-out: Activity
SGC-7901 [7] = assay: Induction of apoptosis in human SGC-7901 cells assessed as downregulation of Bcl-xl incubated for 48 hrs by Western blot analysis; assay type: functional, cell-based; details: dose 1-4 µM
SGC-7901 [8] = assay: Induction of apoptosis in human SGC-7901 cells assessed as decrease in caspase-9 incubated for 48 hrs by Western blot analysis; assay type: functional, cell-based; details: dose 1-4 µM
SGC-7901 [9] = assay: Induction of apoptosis in human SGC-7901 cells assessed as nuclear fragmentation at 1 to 4 uM incubated for 48 hrs by Hoechst staining based fluorescence microscopic analysis; assay type: functional, cell-based; details: dose 1-4 µM
SGC-7901 [10] = assay: Induction of apoptosis in human SGC-7901 cells assessed as decrease in PARP incubated for 48 hrs by Western blot analysis; assay type: functional, cell-based; details: dose 1-4 µM
SGC-7901 [11] = assay: Induction of ROS-mediated apoptosis in human SGC-7901 cells assessed as early apoptotic cells at 2 uM incubated for 48 hrs in presence of NAC by annexin V-PE and 7-AAD staining based flow cytometry analysis (reference value: 1.15 %); assay type: functional
SGC-7901 [12] = assay: Induction of apoptosis in human SGC-7901 cells assessed as necrotic cells at 2 uM incubated for 48 hrs by annexin-V-FITC and PI staining based fluorescence microscopic analysis (reference value: 1.03 %); assay type: functional
SGC-7901 [13] = assay: Induction of cell cycle arrest in human SGC-7901 cells assessed as accumulation in G0/G1 phase at 2 uM incubated for 48 hrs by PI staining based flow cytometry analysis (reference value: 57.39 %); assay type: functional
SGC-7901 [14] = assay: Induction of ROS-mediated apoptosis in human SGC-7901 cells assessed as late apoptotic cells at 1 uM incubated for 48 hrs in presence of NAC by annexin V-PE and 7-AAD staining based flow cytometry analysis (reference value: 3.45 %); assay type: functional
SGC-7901 [15] = assay: Induction of ROS-mediated apoptosis in human SGC-7901 cells assessed as necrotic cells at 2 uM incubated for 48 hrs in presence of NAC by annexin V-PE and 7-AAD staining based flow cytometry analysis (reference value: 0.623 %); assay type: functional
SGC-7901 [16] = assay: Induction of apoptosis in human SGC-7901 cells assessed as downregulation of Bcl-2 incubated for 48 hrs by Western blot analysis; assay type: functional, cell-based; details: dose 1-4 µM
SGC-7901 [17] = assay: Induction of apoptosis in human SGC-7901 cells assessed as viable cells at 4 uM incubated for 48 hrs by annexin-V-FITC and PI staining based fluorescence microscopic analysis (reference value: 93.8 %); assay type: functional; details: read-out: Activity
ECa-109 cell line [18] = assay: Induction of ROS-mediated apoptosis in human ECa-109 cells assessed as necrotic cells at 2 uM incubated for 48 hrs by annexin V-PE and 7-AAD staining based flow cytometry analysis (reference value: 0.729 %); assay type: functional
ECa-109 cell line [19] = assay: Induction of apoptosis in human ECa-109 cells assessed as early apoptotic cells at 1 uM incubated for 48 hrs by annexin-V-FITC and PI staining based fluorescence microscopic analysis (reference value: 0.971 %); assay type: functional
ECa-109 cell line [20] = assay: Induction of apoptosis in human ECa-109 cells assessed as viable cells at 4 uM incubated for 48 hrs by annexin-V-FITC and PI staining based fluorescence microscopic analysis (reference value: 95.8 %); assay type: functional; details: read-out: Activity
ECa-109 cell line [21] = assay: Induction of ROS-mediated apoptosis in human ECa-109 cells assessed as necrotic cells at 1 uM incubated for 48 hrs by annexin V-PE and 7-AAD staining based flow cytometry analysis (reference value: 0.729 %); assay type: functional
ECa-109 cell line [22] = assay: Induction of ROS-mediated apoptosis in human ECa-109 cells assessed as late apoptotic cells at 1 uM incubated for 48 hrs by annexin V-PE and 7-AAD staining based flow cytometry analysis (reference value: 3.89 %); assay type: functional
ECa-109 cell line [23] = assay: Induction of cell cycle arrest in human ECa-109 cells assessed as accumulation in S phase at 1 uM incubated for 48 hrs by PI staining based flow cytometry analysis (reference value: 39.33 %); assay type: functional
ECa-109 cell line [24] = assay: Induction of apoptosis in human ECa-109 cells assessed as necrotic cells at 2 uM incubated for 48 hrs by annexin-V-FITC and PI staining based fluorescence microscopic analysis (reference value: 1.19 %); assay type: functional
ECa-109 cell line [25] = assay: Induction of ROS-mediated apoptosis in human ECa-109 cells assessed as viable cells at 4 uM incubated for 48 hrs in presence of NAC by annexin V-PE and 7-AAD staining based flow cytometry analysis (reference value: 94 %); assay type: functional; details: read-out: Activity
ECa-109 cell line [26] = assay: Induction of apoptosis in human ECa-109 cells assessed as downregulation of Bcl-2 incubated for 48 hrs by Western blot analysis; assay type: functional, cell-based; details: dose 1-4 µM
ECa-109 cell line [27] = assay: Induction of ROS-mediated apoptosis in human ECa-109 cells assessed as early apoptotic cells at 4 uM incubated for 48 hrs by annexin V-PE and 7-AAD staining based flow cytometry analysis (reference value: 2.70 %); assay type: functional

C[n+]1nn(Cc2c(F)cccc2Cl)c2c1C[C@]1(C)[C@H]3CC[C@@H]4[C@H]5[C@H]6OC[C@@]5(CCC6(C)C)CC[C@@]4(C)[C@]3(C)CC[C@H]1C2(C)C.[I-]
Activity (SGC-7901 [1]): Dose-dependent effect | Activity (SGC-7901 [2]): 4.28% | Activity (SGC-7901 [3]): 0.199% | Activity (SGC-7901 [4]): 10.7% | Activity (SGC-7901 [5]): Dose-dependent effect | viability at 4 µM (SGC-7901 [6]): 0.152% | Activity (SGC-7901 [7]): Dose-dependent effect | Activity (SGC-7901 [8]): Dose-dependent effect | Activity (SGC-7901 [9]): Active | Activity (SGC-7901 [10]): Dose-dependent effect | Activity (SGC-7901 [11]): 19.5% | Activity (SGC-7901 [12]): 1.56% | Activity (SGC-7901 [13]): 74.64% | Activity (SGC-7901 [14]): 4.96% | Activity (SGC-7901 [15]): 0.637% | Activity (SGC-7901 [16]): Dose-dependent effect | viability at 4 µM (SGC-7901 [17]): 0.494%

COc1ccccc1Cn1n[n+](C)c2c1C(C)(C)[C@@H]1CC[C@]3(C)[C@H](CC[C@@H]4[C@H]5[C@H]6OC[C@@]5(CCC6(C)C)CC[C@]43C)[C@@]1(C)C2.[I-]
Activity (ECa-109 cell line [18]): 4.87% | Activity (ECa-109 cell line [19]): 17.4% | viability at 4 µM (ECa-109 cell line [20]): 1.26% | Activity (ECa-109 cell line [21]): 2.92% | Activity (ECa-109 cell line [22]): 18.6% | Activity (ECa-109 cell line [23]): 35.03% | Activity (ECa-109 cell line [24]): 1.32% | viability at 4 µM (ECa-109 cell line [25]): 13.8% | Activity (ECa-109 cell line [26]): Dose-dependent effect | Activity (ECa-109 cell line [27]): 2%
